We go through 80 molecules from the METLIN SMRT retention time set (Domingo-Almenara et al. 2019).

SMILES strings stand for the structures.

The data set can be described thus: gradient 5% acetonitrile 3 min, to 50% in 2 min, to 85% in 15 min, held 3 min, 100 µL/min. The settings on record: column: Zorbax Extend-C18 2.1 x 50 mm; eluents: water / acetonitrile, 0.1% formic acid. The essentials:
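Using water and acetonitrile that each contained 0.1% formic acid, mixtures of ~100 pure standards were separated at 100 μL/min on a Zorbax Extend-C18 column (2.1 × 50 mm, 1.8 μm). The HPLC fed a quadrupole time-of-flight mass spectrometer working in positive and negative ionization mode, with dead and dwell volumes of 40 μL and 900 μL. Data were acquired over 3 months. Retention time was read from computationally picked adduct peaks after manual inspection of each.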
The molecule `CCOCCCNC(=O)N1[C@H]2CC[C@@H]1c1cnc(-c3ccccc3)nc1C2` returned an RP-LC retention time of 778 s.

With `COc1ccc(Cl)c2c(=O)c3c([nH]c12)CCN(CC(=O)NCc1ccc(C)cc1)C3`, the RP-LC retention time was 630 s.

`Cc1ccc(Sc2nccnc2N2CCC(C(=O)N3CCOCC3)CC2)cc1` had an RP-LC retention time of 881 s.

For `Cc1cccc(NC(=O)N2CCc3nc[nH]c3C2)c1C`, the RP-LC retention time was determined as 565 s.

Consider `Cc1ccc(NC(=O)N2CCC(c3nc(C(=O)N4CCCC4)c(C)o3)CC2)cc1C`, for which the RP-LC retention time is 829 s.

As to `CC(C)CC(=O)Nc1ccc(-n2cnc(C(=O)N3CCCC(C)C3)c2)nc1` (stereo not given), the RP-LC retention time came to 756 s.

In the case of `O=C(NCCN1CCOCC1)C1CCCN(c2nccnc2Sc2ccccc2)C1` (stereo not given), the RP-LC retention time came to 652 s.

The molecule `O=C(c1ccc(F)c(F)c1)N1CCc2[nH]cnc2C1c1ccccc1` (stereo not given) displayed an RP-LC retention time of 652 s.

The molecule `Cc1nc2ccn(Cc3ccco3)c(=O)c2cc1C(=O)NC1CCCCC1` displayed an RP-LC retention time of 751 s.

For `Cn1nc(C(=O)N2CCCC(C(=O)N3CCCC3)C2)c2c1CCN(C(=O)c1ccccc1Cl)C2` (stereo not given), the RP-LC retention time amounted to 662 s.

`CC(C)CNC(=O)C1CCN(C(=O)Nc2ccc(NC(=O)NC3CCCC3)cc2)CC1` displayed an RP-LC retention time of 728 s.

Consider `Cc1nc(-c2ccc3c(c2)n(CC(=O)NCc2ccc4c(c2)OCO4)c(=O)n3C(C)C)no1`, for which the RP-LC retention time is 619 s.

`CCOCCCNC(=O)c1cc2c(n(-c3ccc(C(C)C)cc3)c1=O)CCCC2=O`: the RP-LC retention time worked out at 952 s.

`O=C(NCc1cc(F)ccc1F)c1ccc2ncnc(N3CCCC3)c2c1` showed an RP-LC retention time of 650 s.

Take `O=C(Cc1ccc(F)cc1)NC1CCN(c2cc(-c3ccc(F)cc3)[nH]n2)C1` (stereo not given): the RP-LC retention time amounted to 720 s.

Take `COc1ccccc1-c1noc(CCn2nc(-c3ccc(F)cc3)ccc2=O)n1`: the RP-LC retention time turned out to be 863 s.

Regarding `CC(=O)N1CCc2cc(C(=O)N3CCCCCC3)ccc21`, the RP-LC retention time was 723 s.

Molecule `O=C(Nc1ccccc1Cl)N1CCN(c2cnn3cnnc3c2)CC1` showed an RP-LC retention time of 625 s.

In turn, `O=C(Nc1ccc2c(c1)OCO2)c1cn(-c2ccc(F)cc2)nn1` displayed an RP-LC retention time of 885 s.

As for `CCCc1ccc(S(=O)(=O)Nc2ccc(N3CCCN(C)CC3)cc2C(=O)O)cc1`, the RP-LC retention time worked out at 676 s.

Regarding `O=C(c1cn(-c2ccc(-c3nc(C4CC4)no3)cn2)cn1)N1CCCC1`, the RP-LC retention time was 676 s.

Molecule `CCc1nn2c(CNS(=O)(=O)Cc3cccc(Cl)c3)c(-c3ccccc3)nc2s1` displayed an RP-LC retention time of 1010 s.

The molecule `CCN1C(=O)C2(CCN(C(=O)NCCC(C)C)CC2)c2ccccc21` yielded an RP-LC retention time of 854 s.

For `O=C(NCCc1ccccn1)C1CCc2nc(N3CCOCC3)ncc2C1` (stereo not given), the RP-LC retention time is 645 s.

`Cc1ccc(-c2nnc(N3CCC(C(=O)NCc4cccs4)CC3)o2)cc1`: the RP-LC retention time was determined as 933 s.

Molecule `Cc1cnn(Cc2nc(-c3ccc(NC(=O)c4ccsc4)cc3)oc2C)c1` displayed an RP-LC retention time of 876 s.

Turning to `CC1CCN(C(=O)c2ccc(OCC3CCCN(C(=O)c4ccc(F)cc4)C3)cc2)CC1` (stereo not given), the RP-LC retention time came out at 995 s.

In turn, `CCCC(CCC)C(=O)NCCS(=O)(=O)N1CCN(c2ccccn2)CC1` gave an RP-LC retention time of 594 s.

In the case of `CNC(=O)c1cccc(Nc2c(-c3ccc(SC)cc3)nc3cnccn23)c1`, the RP-LC retention time worked out at 692 s.

Turning to `O=c1cc(O)cc(/C=C/c2ccc(O)c(O)c2)o1`, the RP-LC retention time is 680 s.

`Cc1csc(-c2cc(S(=O)(=O)Nc3ccc(F)c(F)c3)cn2CC(=O)N2CCCC2)n1` had an RP-LC retention time of 927 s.

For `CCSc1nccc2c1ccn2CC(=O)NCc1ccc(Br)cc1`, the RP-LC retention time was 681 s.

Molecule `CC(C)NC(=O)N1CCCC(c2cccc(C(=O)NCCN3CCCCC3C)c2)C1` (stereo not given) gave an RP-LC retention time of 624 s.

With `CCc1ccccc1NC(=O)c1ncn2c1C(=O)N(C1CC1)C(C)(C(=O)NC1CCCC1)C2` (stereo not given), the RP-LC retention time came to 828 s.

`CCCCc1ccc(N2CCn3c2nc2c3c(=O)n(CC(=O)O)c(=O)n2C)cc1` yielded an RP-LC retention time of 826 s.

On to `COC(=O)c1ccc(NS(=O)(=O)c2cccc(S(C)(=O)=O)c2)cc1`, for which the RP-LC retention time was 706 s.

Molecule `O=C(Cn1nc(Cc2cccnc2)c2ccccc2c1=O)N1CCN(C(=O)c2ccco2)CC1` displayed an RP-LC retention time of 578 s.

On to `O=C(Cc1csc(NC(=O)C2CC2)n1)Nc1ccc(Cl)c(Cl)c1`, for which the RP-LC retention time was determined as 827 s.

`Cc1cc(NC(=O)N2CCN(CCn3c(C)nc4cccnc43)CC2)ccc1Br` returned an RP-LC retention time of 641 s.

Turning to `CC1CN(c2ccc(Cl)cc2)c2nc3c(c(=O)n(C)c(=O)n3C)n2C1` (stereo not given), the RP-LC retention time was 885 s.

The molecule `CCOc1ccc(NC(=O)Nc2nccn(-c3cccc(Cl)c3)c2=O)cc1` returned an RP-LC retention time of 1000 s.

Molecule `Cn1ccc(CN2CCc3ccccc32)cc1=O` showed an RP-LC retention time of 788 s.

For the molecule `CCOC(=O)c1cnc2c(C(F)(F)F)cccc2c1NCCN(C)C`, the RP-LC retention time was determined as 614 s.

As to `CCOC(=O)c1ccc(NC(=O)CSc2ccc3nnc(-c4ccccn4)n3n2)cc1`, the RP-LC retention time was found to be 656 s.

`COc1ccc(/C=C/c2ccccc2F)cc1` displayed an RP-LC retention time of 1170 s.

For `CC(C)N1CCN(Cc2ccc(C(=O)NCc3ccccc3C(F)(F)F)cc2)C(=O)C1=O`, the RP-LC retention time amounted to 770 s.

For the molecule `CC1=C(C(=O)NCCCN2CC(C)CC(C)C2)C2(CCN(Cc3ccccc3)CC2)OC1=O` (stereo not given), the RP-LC retention time was determined as 567 s.

`Cc1nc(-c2cc(S(=O)(=O)N3CCCCC3)c(C)n2C)sc1C`: the RP-LC retention time was 1140 s.

Consider `Cc1ccc(S(=O)(=O)N2C(=O)CCC2C(=O)Nc2cc(C)ccc2C)cc1` (stereo not given), for which the RP-LC retention time was found to be 939 s.

In the case of `COc1ccc(OC)c2sc(NC(=O)c3ccc(Cl)s3)nc12`, the RP-LC retention time was determined as 990 s.

The molecule `Cc1cccc(N2CCN(c3cc(C(=O)O)c4cc(NC(=O)CC(C)C)ccc4n3)CC2)c1` gave an RP-LC retention time of 710 s.

`O=C(c1ccc(OCC2CCCN2C(=O)Cc2ccc(Cl)cc2)cc1)N1CCOCC1` (stereo not given) had an RP-LC retention time of 811 s.

As for `O=S(=O)(NCC1CCN(Cc2ccc(Cl)cc2)CC1)c1ccc2c(c1)-c1oncc1CO2`, the RP-LC retention time is 708 s.

For `Cc1cccc(Cn2cc(C(=O)O)c3ccccc3c2=O)c1`, the RP-LC retention time amounted to 857 s.

In turn, `Cc1nc(NC(=O)Cc2c(C)[nH]c(=O)[nH]c2=O)sc1C(=O)Nc1ccccc1` yielded an RP-LC retention time of 617 s.

`O=C(c1ccc(-c2csc(C3CC3)n2)cc1)N1CCN(c2ncccn2)CC1` returned an RP-LC retention time of 912 s.

`Cc1cccc(NS(=O)(=O)c2cc(-c3[nH]ncc3C(=O)N3CCOCC3)oc2C)c1` gave an RP-LC retention time of 683 s.

Take `CCOc1ccc(CNC(=O)C2CCN(c3cnc4nccnc4c3)CC2)cc1`: the RP-LC retention time was 698 s.

As for `CCCNC(=O)c1cn(-c2ccc(-c3nc(CC)no3)cn2)cn1`, the RP-LC retention time was found to be 777 s.

Molecule `CC(Oc1cccc(Cl)c1)C(=O)N1CCCN(c2cc(=O)n(C)c(=O)n2C)CC1` (stereo not given) returned an RP-LC retention time of 707 s.

On to `CN(Cc1ccccc1)C(=O)c1cc2c(=O)oc3ccccc3c2n1C`, for which the RP-LC retention time worked out at 884 s.

Take `Brc1ccc(Nc2nc(-c3ccccc3)cs2)nc1`: the RP-LC retention time was determined as 1210 s.

As for `CCCN1C(=O)c2c(C(=O)NCc3ccccc3F)ncn2CC1(C)C(=O)NCCC(C)C` (stereo not given), the RP-LC retention time amounted to 836 s.

The molecule `CC1CCN(S(=O)(=O)c2ccc3nn(Cc4cc(F)cc(F)c4)c(=O)n3c2)CC1` yielded an RP-LC retention time of 1040 s.

With `O=S(=O)(c1cc(F)ccc1F)N1CCc2nc(-c3ccc(F)cc3)ncc2C1`, the RP-LC retention time was 1100 s.

On to `COc1ccc(N2C=C(C(=O)N3CCOCC3)S(=O)(=O)c3ccccc32)cc1Cl`, for which the RP-LC retention time turned out to be 789 s.

Consider `CNCC[C@@H](Oc1ccccc1C)c1ccccc1`, for which the RP-LC retention time stood at 728 s.

Turning to `O=C(NCCc1ccccn1)C1CCN(c2cnn(Cc3ccccc3)c(=O)c2)CC1`, the RP-LC retention time came out at 594 s.

Consider `O=C(Cn1ccc2ccccc21)N1CCC(COCc2ccccc2)CC1`, for which the RP-LC retention time amounted to 1020 s.

As to `Cc1ccc(NC(=O)Cn2c(N3CCCC3)nc(C)cc2=O)cc1`, the RP-LC retention time was 636 s.

With `COc1ccc(NC(=O)N2CCCC(C)(C(=O)NCc3ccccc3)C2)cc1OC` (stereo not given), the RP-LC retention time amounted to 846 s.

In turn, `c1ccc(-c2nc(-c3ccncc3)no2)c(OC2CCN(Cc3ccsc3)C2)c1` (stereo not given) registered an RP-LC retention time of 679 s.

As to `Cc1ccc(Cl)cc1NC(=O)N1CCC(n2cnnc2C2CC2)C1` (stereo not given), the RP-LC retention time came out at 653 s.

As to `CC(C)(C)c1ccc(-c2nc(N3CCOCC3)c3ccccc3n2)cc1`, the RP-LC retention time is 821 s.

Molecule `COc1ccc(-c2nc(C)c(C(=O)O)s2)cc1OC` showed an RP-LC retention time of 730 s.

`O=C(Nc1ccccc1F)c1cccn1Cc1noc(-c2ccccc2)n1` displayed an RP-LC retention time of 1010 s.

The molecule `CCn1nc(C)n2cc(S(=O)(=O)NCc3ccco3)cc2c1=O` displayed an RP-LC retention time of 779 s.

`CC(C)S(=O)(=O)c1ccc(CC(=O)N(Cc2cccs2)Cc2cccn2C)cc1` showed an RP-LC retention time of 877 s.

`Cn1nc(-c2nnc(-c3ccc(F)cc3)o2)c2c1CCN(S(=O)(=O)c1ccc(F)cc1)C2` registered an RP-LC retention time of 903 s.

For `Cc1ccc(NC(=O)C2CCN(S(=O)(=O)c3c(C)[nH]c(C)c3C(=O)N3CCCC3)CC2)c(C)c1`, the RP-LC retention time came out at 729 s.
